From article PMC5672842 (Chemical Science, 2017)
Like-named read-outs stand apart in the source and are kept apart here. One block for each compound: values may come before it.

Key:
[1] = target: β-Glucosidase (P. chrysosp.) (Phanerodontia chrysosporium, UniProt O74203); test: 4-nitrophenyl β-D-glucopyranoside hydrolysis, absorbance […] nm; format: biochemical; settings: pH 6.0, 37 °C, phosphate buffer, 10% DMSO
α-Glucosidase (A. niger) = target: T1, α-Glucosidase (A. niger) (Aspergillus niger, UniProt P56526); test: 4-nitrophenyl α-D-glucopyranoside hydrolysis, absorbance […] nm; format: biochemical
T1 sequence (P56526 26-985): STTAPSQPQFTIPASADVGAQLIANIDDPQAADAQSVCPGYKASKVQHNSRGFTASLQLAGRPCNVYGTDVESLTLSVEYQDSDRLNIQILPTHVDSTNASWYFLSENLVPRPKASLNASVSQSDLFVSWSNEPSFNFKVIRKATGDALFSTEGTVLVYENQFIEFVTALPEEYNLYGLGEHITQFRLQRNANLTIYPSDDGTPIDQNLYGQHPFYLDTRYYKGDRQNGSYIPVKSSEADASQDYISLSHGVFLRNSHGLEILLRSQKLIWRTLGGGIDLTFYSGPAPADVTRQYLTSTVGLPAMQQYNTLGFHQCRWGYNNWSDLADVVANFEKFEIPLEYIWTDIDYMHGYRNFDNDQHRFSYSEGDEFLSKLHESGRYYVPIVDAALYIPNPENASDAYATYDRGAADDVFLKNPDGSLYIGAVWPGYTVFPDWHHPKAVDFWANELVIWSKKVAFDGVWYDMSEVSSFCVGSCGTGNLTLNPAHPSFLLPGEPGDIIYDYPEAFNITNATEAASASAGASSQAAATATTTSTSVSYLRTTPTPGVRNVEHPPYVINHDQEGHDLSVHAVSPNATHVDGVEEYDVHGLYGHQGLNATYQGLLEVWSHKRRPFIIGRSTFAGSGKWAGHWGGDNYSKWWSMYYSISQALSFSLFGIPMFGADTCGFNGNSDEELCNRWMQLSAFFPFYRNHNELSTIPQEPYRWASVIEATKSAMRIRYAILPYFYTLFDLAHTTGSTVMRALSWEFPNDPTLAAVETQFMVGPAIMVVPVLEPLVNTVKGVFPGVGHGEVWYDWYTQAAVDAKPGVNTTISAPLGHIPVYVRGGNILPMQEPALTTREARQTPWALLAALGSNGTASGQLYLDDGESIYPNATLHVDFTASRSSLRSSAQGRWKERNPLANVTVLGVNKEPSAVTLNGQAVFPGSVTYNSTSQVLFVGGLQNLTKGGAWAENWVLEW

[2] = target: α-Glucosidase (B. stearoth.); test: as above; format: biochemical, Geobacillus stearothermophilus; settings: read-out: 6; pH 6.0, 37 °C, phosphate buffer, 10% DMSO; competitive
[3] = target: β-Glucosidase (A. oryzae); test: 4-nitrophenyl β-D-glucopyranoside hydrolysis, absorbance […] nm; format: biochemical, Aspergillus oryzae; settings: read-out: 19; pH 6.0, 37 °C, phosphate buffer, 10% DMSO

β-Glucosidase (P. chrysosp.), sequence (O74203 22-823): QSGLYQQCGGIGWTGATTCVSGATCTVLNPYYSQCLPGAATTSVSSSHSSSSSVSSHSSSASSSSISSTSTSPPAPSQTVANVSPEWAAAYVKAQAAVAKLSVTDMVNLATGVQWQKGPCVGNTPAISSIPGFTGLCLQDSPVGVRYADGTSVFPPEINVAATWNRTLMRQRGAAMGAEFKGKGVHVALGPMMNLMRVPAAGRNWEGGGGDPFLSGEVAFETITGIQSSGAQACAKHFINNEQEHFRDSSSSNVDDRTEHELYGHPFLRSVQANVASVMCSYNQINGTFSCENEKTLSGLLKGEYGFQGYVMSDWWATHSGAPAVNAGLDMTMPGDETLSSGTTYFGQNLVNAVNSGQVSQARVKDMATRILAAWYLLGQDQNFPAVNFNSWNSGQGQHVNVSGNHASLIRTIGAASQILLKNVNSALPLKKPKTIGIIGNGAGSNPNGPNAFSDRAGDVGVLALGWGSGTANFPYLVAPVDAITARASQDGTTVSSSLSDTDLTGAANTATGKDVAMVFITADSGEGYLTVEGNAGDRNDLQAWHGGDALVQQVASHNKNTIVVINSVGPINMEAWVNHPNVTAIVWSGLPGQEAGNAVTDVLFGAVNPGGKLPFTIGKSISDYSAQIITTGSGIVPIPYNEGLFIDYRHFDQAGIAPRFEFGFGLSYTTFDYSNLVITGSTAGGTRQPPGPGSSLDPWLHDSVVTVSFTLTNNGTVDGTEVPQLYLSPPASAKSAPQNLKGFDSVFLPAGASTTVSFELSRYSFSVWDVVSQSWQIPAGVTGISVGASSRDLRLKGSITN

Ki ([1]; read-out: 6, competitive): 2.7 µM
Ki (α-Glucosidase (A. niger)): 1.04 µM
Ki [2]: 93 µM
SMILES: OC[C@@H]1[C@@H](O)[C@H](O)[C@@H](O)CN1Cc1c2ccccc2c(Cl)c2ccccc12 [compound 6, N-(10-Chloro-9-anthracenemethyl)-1-deoxynojirimycin]

Ki ([1]; read-out: 12): 0.0062 µM
SMILES: OC[C@@H]1[C@@H](O)[C@H](O)[C@@H](O)CN1CCc1c2ccccc2c(Cl)c2ccccc12 [compound 12, 1-(2-(10-Chloroanthracen-9-yl)ethyl)-1-deoxynojirimycin]

Ki ([1]; read-out: 15): 0.0103 µM
SMILES: OC[C@@H]1[C@@H](O)[C@H](O)[C@@H](O)CN1CCCc1c2ccccc2c(Cl)c2ccccc12 [compound 15, 1-(3-(10-Chloroanthracen-9-yl)propyl)-1-deoxynojirimycin]

Ki ([1]; read-out: 19): 24.3 µM
Ki [3]: 169 µM
Ki (α-Glucosidase (A. niger)): 14.4 µM
SMILES: O=C1[C@H](O)[C@@H](O)[C@H](O)[C@@H](CO)N1Cc1c2ccccc2c(Cl)c2ccccc12 [compound 19, N-(10-Chloro-9-anthracenemethyl)-D-glucono-δ-lactam]
